Results on five compounds are retold here after patent US20250368648A1, “MULTI-CYCLIC IRAK AND FLT3 INHIBITING COMPOUNDS AND USES THEREOF” (CHILDREN'S HOSPITAL MEDICAL CENTER, priority 2022, published 2025).

The structures appear in SMILES notation.

The subject of one test is MOLM14 (D835Y) cells. Description: Combination drug screening, Cell Titer Glo, MOLM14 (D835Y) cells.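 As to all read-outs here: MOLM14 cells with FLT3 ITD plus D835Y, 500 per well in 1536-well plates, 10-point dose ranges, luminescent viability after 48 h, negative Excess HSA indicates synergy.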 The following applies: MOLM14(D835Y) cells; for Excess HSA Score: sum score, listed as compound in combination with Compound 106, 48 hours.
Another test relates to THP1 cells. Description: Combination drug screening, Cell Titer Glo, THP1 cells.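 As to all read-outs here: luminescence read out in 1536-well plates seeded with 500 THP1 cells per well, each drug spanning a 10-point concentration range in the combination matrix.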 The following applies: THP1 cells; for Excess HSA Score: sum score, 10 × 10 dataset, 48 hours.
Where [1] appears, read: combination therapy of CG-806 (a FLT3/BTK inhibitor) and the named additional compound, 110 × 10 dataset.
Setting [2] is: combination therapy of Compound 45a and the named additional compound, 110 × 10 dataset.
Where [3] appears, read: combination therapy of Compound 46a and the named additional compound, 110 × 10 dataset.
[4] abbreviates: combination therapy of Compound 47a and the named additional compound, 110 × 10 dataset.
Where [5] appears, read: combination therapy of Compound 48a and the named additional compound, 110 × 10 dataset.
The mark [6] stands for this setting: combination therapy of Compound 102 and the named additional compound, 10 × 10 dataset.
Setting [7] is: combination therapy of Gilteritinib (a FLT3/AXL inhibitor) and the named additional compound, 110 × 10 dataset.
[8] abbreviates: combination therapy of PF-06650833 (an IRAK4 selective inhibitor) and the named additional compound, 110 × 10 dataset.
Where [9] appears, read: combination therapy of Quizartinib (a FLT3/Kit/PDGFRa inhibitor) and the named additional compound, 110 × 10 dataset.
Where [10] appears, read: combination therapy of emavusertib (CA-4948) (a FLT3/IRAK4 inhibitor) and the named additional compound, 110 × 10 dataset.
Setting [11] is: listed as compound in combination with CG-806 (a FLT3/BTK inhibitor).
[12] abbreviates: listed as compound in combination with Compound 45a.
Where [13] appears, read: listed as compound in combination with Compound 46a.
Setting [14] is: listed as compound in combination with Compound 47a.
Setting [15] is: listed as compound in combination with Compound 48a.
[16] abbreviates: listed as compound in combination with Compound 102.
Where [17] appears, read: listed as compound in combination with Compound 106.
Setting [18] is: listed as compound in combination with Gilteritinib (a FLT3/AXL inhibitor).
[19] abbreviates: listed as compound in combination with PF-06650833 (an IRAK4 selective inhibitor).
The mark [20] stands for this setting: listed as compound in combination with Quizartinib (a FLT3/Kit/PDGFRa inhibitor).
The mark [21] stands for this setting: listed as compound in combination with emavusertib (CA-4948) (a FLT3/IRAK4 inhibitor).

Excerpt for THP1 cells: A smaller concentration indicates higher potency to synergize with Venetoclax. […] The numbers in each cell represent the % response (left) or the Delta Bliss score (right) at each given concentration combination.
A smaller concentration indicates higher potency to synergize with azacitidine. […] The numbers in each cell represent the % response (left) or the Delta Bliss score (right) at each given concentration combination.
This is a cell line that has the FLT3 ITD mutation but also the FLT3 D835Y kinase domain mutation. […] Excess HSA is a measure of synergy vs. additivity or antagonism, wherein a negative Excess HSA value is indicative of synergy.
Briefly, 10 nL of compounds were acoustically dispensed into 1536-well white polystyrene tissue culture-treated plates with an Echo 550 acoustic liquid handler (Labcyte). MOLM14 (D835Y) or THP1 cells were then added to compound-containing plates at a density of 500-cells/well in 5 μL of medium. A 10-point custom concentration range was used for all listed drugs. […] 48h post compound addition, 3 μL of Cell Titer Glo (Promega) were added to each well and plates were incubated at room temperature for 15 minutes with the stainless-steel lid in place. Luminescence readings were taken using a Viewlux imager (PerkinElmer) with a 2 second exposure time per plate.

For the compound `COc1cc(F)ccc1-c1cc(Nc2cc(CS(C)(=N)=O)ccn2)ncc1F` (single isomer, unassigned; (+)) [(+)-BAY-1251152, BAY1251152], the “Sum Excess HSA Score” value is 1704 with MOLM14 (D835Y) cells (setting [1]); −157.4 in the test with MOLM14 (D835Y) cells (setting [2]); −133.4976 with MOLM14 (D835Y) cells (setting [3]); −727.7 in the test on MOLM14 (D835Y) cells (setting [4]); −215.2 with MOLM14 (D835Y) cells (setting [5]); −20.6 in the test on MOLM14 (D835Y) cells (setting [6]). For the same compound, the “Sum Excess HSA Score” value in the test on MOLM14 (D835Y) cells (setting [7]) is recorded as 362.2497; in the test on MOLM14 (D835Y) cells (setting [8]) it was −386; in the test on MOLM14 (D835Y) cells (setting [9]), −511.9; in the test on MOLM14 (D835Y) cells (setting [10]) it was 274. In addition, the “Excess HSA Score” value is −865.6 with MOLM14 (D835Y) cells (10 × 10 dataset); −199.4 with THP1 cells (setting [11]); −860.7 in the test with THP1 cells (setting [12]); −263.4 with THP1 cells (setting [13]); −21.17 in the test with THP1 cells (setting [14]); 97 in the test with THP1 cells (setting [15]). The “Excess HSA Score” value in the test with THP1 cells (setting [16]) is listed as −265.1; in the test on THP1 cells (setting [17]), −427.1; in the test with THP1 cells (setting [18]), −656.6; with THP1 cells (setting [19]) it was −758.9; with THP1 cells (setting [20]), 454.7; in the test on THP1 cells (setting [21]), −51.35. For the same compound, the Comments result in the test on THP1 cells (combination with PF-06650833) was “Synergistic (a negative Excess HSA value is indicative of synergy)”.
In the case of `CC(C)[C@@H](CS(=O)(=O)C(C)C)N1C(=O)[C@@](C)(CC(=O)O)C[C@H](c2cccc(Cl)c2)[C@H]1c1ccc(Cl)cc1` [AMG-232, navtemadlin], the “Sum Excess HSA Score” value is recorded as −536.7 in the test with MOLM14 (D835Y) cells (setting [1]); −165.5 in the test with MOLM14 (D835Y) cells (setting [2]); −654.7 in the test with MOLM14 (D835Y) cells (setting [3]); −325.2 with MOLM14 (D835Y) cells (setting [4]); 224.1 in the test on MOLM14 (D835Y) cells (setting [5]); −197.3 in the test with MOLM14 (D835Y) cells (setting [6]). The “Sum Excess HSA Score” value is −113 in the test on MOLM14 (D835Y) cells (setting [7]), −1066 in the test with MOLM14 (D835Y) cells (setting [8]), −1109 in the test on MOLM14 (D835Y) cells (setting [9]) and −373.7 in the test with MOLM14 (D835Y) cells (setting [10]). Moreover, the “Excess HSA Score” value in the test on MOLM14 (D835Y) cells (10 × 10 dataset) is reported as −640.2; with THP1 cells (setting [11]), 917.1; in the test with THP1 cells (setting [12]), 441; in the test on THP1 cells (setting [13]), 229.7; in the test with THP1 cells (setting [14]) it was 364.2; in the test with THP1 cells (setting [15]), 420.6. Moreover, the “Excess HSA Score” value with THP1 cells (setting [16]) is −171.2; in the test on THP1 cells (setting [17]), 394.3; with THP1 cells (setting [18]) it was 24.49; in the test on THP1 cells (setting [19]) it was −179; with THP1 cells (setting [20]), −91.44; with THP1 cells (setting [21]), 125.5.
For the compound `NC1(C(=O)N[C@@H](CCO)c2ccc(Cl)cc2)CCN(c2nc[nH]c3nccc2-3)CC1` [AZD-5363, capivasertib], the “Comments (synergistic / antagonistic)” value with MOLM14 (D835Y) cells (setting [1]) is “Synergistic (a negative Excess HSA value is indicative of synergy)”. Further, the “Sum Excess HSA Score” value in the test with MOLM14 (D835Y) cells (setting [1]) is listed as −2332; in the test on MOLM14 (D835Y) cells (setting [2]), −239.9; in the test with MOLM14 (D835Y) cells (setting [3]), 637.8; in the test with MOLM14 (D835Y) cells (setting [4]) it was −894; with MOLM14 (D835Y) cells (setting [5]) it was −939.6; in the test with MOLM14 (D835Y) cells (setting [6]), −439.3. Also, the “Sum Excess HSA Score” value in the test on MOLM14 (D835Y) cells (setting [7]) is on record as −966.8597; with MOLM14 (D835Y) cells (setting [8]) it was 47.56; in the test with MOLM14 (D835Y) cells (setting [9]), −1637; in the test with MOLM14 (D835Y) cells (setting [10]), −850.1. The “Excess HSA Score” value in the test on MOLM14 (D835Y) cells (10 × 10 dataset) is reported as −105.2; in the test with THP1 cells (setting [11]), −189.8; in the test with THP1 cells (setting [12]), −1027.6539; in the test on THP1 cells (setting [13]), −276.8; in the test on THP1 cells (setting [14]), 124.8; in the test with THP1 cells (setting [15]), −732.6. Further, the “Excess HSA Score” value is on record as −198.6 in the test on THP1 cells (setting [16]); −134.3 in the test with THP1 cells (setting [17]); 989.6 in the test on THP1 cells (setting [18]); −649.7 in the test with THP1 cells (setting [19]); 17.2569 with THP1 cells (setting [20]); −1144.9723 in the test with THP1 cells (setting [21]). Besides, the Comments result with THP1 cells (combination with Compound 48a) and in the test with THP1 cells (combination with emavusertib (CA-4948)) was “Synergistic (a negative Excess HSA value is indicative of synergy)” throughout.
As for `COCC1(CO)C(=O)C2CCN1CC2` (stereo not drawn) [Eprenetapopt/APR-246, APR-246 (Eprenetapopt)], the “Sum Excess HSA Score” value in the test with MOLM14 (D835Y) cells (setting [1]) was −271.7; with MOLM14 (D835Y) cells (setting [2]) it was 284.5; in the test on MOLM14 (D835Y) cells (setting [3]), −183.2; with MOLM14 (D835Y) cells (setting [4]) it was 366.1; in the test with MOLM14 (D835Y) cells (setting [5]) it was −140.8; in the test with MOLM14 (D835Y) cells (setting [6]), −55.14. Further, the “Sum Excess HSA Score” value was 647.6 with MOLM14 (D835Y) cells (setting [7]), −566 in the test on MOLM14 (D835Y) cells (setting [8]), −652.9 in the test with MOLM14 (D835Y) cells (setting [9]) and 504.1 in the test on MOLM14 (D835Y) cells (setting [10]). For the same compound, the “Excess HSA Score” value was −43.15 with MOLM14 (D835Y) cells (10 × 10 dataset); 300.5 in the test with THP1 cells (setting [11]); −629.2 in the test on THP1 cells (setting [12]); 603.9 with THP1 cells (setting [13]); −14.7 with THP1 cells (setting [14]); −33.1 with THP1 cells (setting [15]). The “Excess HSA Score” value in the test with THP1 cells (setting [16]) is on record as 171.5; in the test with THP1 cells (setting [17]) it was 268; with THP1 cells (setting [18]) it was 365.9; in the test with THP1 cells (setting [19]), −225.6; in the test on THP1 cells (setting [20]), 437.691; with THP1 cells (setting [21]), 482.6.
As for `N#Cc1ccnc(N2C(=O)CC[C@H]2C(=O)N(c2cncc(F)c2)[C@H](C(=O)NC2CC(F)(F)C2)c2ccccc2Cl)c1` [Ivosidenib, ivosidenib], the “Sum Excess HSA Score” value in the test with MOLM14 (D835Y) cells (setting [1]) was −199.6; in the test with MOLM14 (D835Y) cells (setting [2]) it was 259.8; in the test with MOLM14 (D835Y) cells (setting [3]) it was −118.7; with MOLM14 (D835Y) cells (setting [4]) it was 218.5; in the test on MOLM14 (D835Y) cells (setting [5]) it was −299.6; with MOLM14 (D835Y) cells (setting [6]) it was −713.3. Besides, the “Sum Excess HSA Score” value in the test on MOLM14 (D835Y) cells (setting [7]) is listed as 347.6; with MOLM14 (D835Y) cells (setting [8]) it was −172.4; in the test with MOLM14 (D835Y) cells (setting [9]) it was 244.1367; in the test on MOLM14 (D835Y) cells (setting [10]) it was 35.12. Further, the “Excess HSA Score” value is 28.0568 in the test with MOLM14 (D835Y) cells (10 × 10 dataset); 93.96 in the test with THP1 cells (setting [11]); −296.7 in the test with THP1 cells (setting [12]); −42.9834 with THP1 cells (setting [13]); −122.1 in the test with THP1 cells (setting [14]); −0.4511 in the test on THP1 cells (setting [15]). In addition, the “Excess HSA Score” value in the test on THP1 cells (setting [16]) was −215.7606; with THP1 cells (setting [17]), 354.6; in the test with THP1 cells (setting [18]), 338; in the test on THP1 cells (setting [19]), −152.4; in the test on THP1 cells (setting [20]), 177.8; in the test with THP1 cells (setting [21]) it was 285.
